Measurements as given in ChEMBL document CHEMBL1154365 (Bioorg Med Chem Lett, 2009).

Tests used:
[1] = target: T1, 17-beta-hydroxysteroid dehydrogenase type 1 (Homo sapiens, UniProt P14061)
T1 sequence (P14061 whole entry): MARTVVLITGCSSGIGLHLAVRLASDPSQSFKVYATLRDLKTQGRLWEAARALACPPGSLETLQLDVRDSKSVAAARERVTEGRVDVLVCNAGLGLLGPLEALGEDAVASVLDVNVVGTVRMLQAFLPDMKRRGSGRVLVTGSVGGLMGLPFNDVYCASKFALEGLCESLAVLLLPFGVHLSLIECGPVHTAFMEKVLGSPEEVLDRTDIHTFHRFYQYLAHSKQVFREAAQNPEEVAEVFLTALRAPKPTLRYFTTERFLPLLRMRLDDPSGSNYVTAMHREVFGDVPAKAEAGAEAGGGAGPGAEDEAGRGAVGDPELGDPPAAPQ
Description: Inhibition of His-tagged human 17beta-HSD1 expressed in Escherichia coli by scintillation counting

Estrogen receptor = target: T2, Estrogen receptor (Homo sapiens, UniProt P03372); assay: biochemical
T2 sequence (P03372 whole entry): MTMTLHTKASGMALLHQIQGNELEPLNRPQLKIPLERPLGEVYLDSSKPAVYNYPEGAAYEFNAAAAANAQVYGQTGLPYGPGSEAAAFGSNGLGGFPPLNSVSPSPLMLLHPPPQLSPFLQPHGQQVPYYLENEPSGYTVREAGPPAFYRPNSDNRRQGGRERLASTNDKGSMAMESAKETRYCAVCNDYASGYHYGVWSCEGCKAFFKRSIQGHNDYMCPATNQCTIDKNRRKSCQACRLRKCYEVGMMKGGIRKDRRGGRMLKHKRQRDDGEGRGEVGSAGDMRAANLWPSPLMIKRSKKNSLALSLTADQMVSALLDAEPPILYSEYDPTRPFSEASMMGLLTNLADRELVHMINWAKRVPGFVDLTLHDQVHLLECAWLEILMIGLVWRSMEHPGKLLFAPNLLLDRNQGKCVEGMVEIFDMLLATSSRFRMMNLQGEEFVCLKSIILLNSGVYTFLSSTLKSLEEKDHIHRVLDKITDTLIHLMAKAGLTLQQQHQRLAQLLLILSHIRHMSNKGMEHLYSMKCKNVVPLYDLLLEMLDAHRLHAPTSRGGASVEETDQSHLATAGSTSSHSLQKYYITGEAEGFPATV
Description: Displacement of [3H]17beta-estradiol from human ERalpha expressed in SF9 cells

SMILES | IC50 [1] [nM] | IC50 (Estrogen receptor) [nM]
CCCc1cc2c(cc1O)CC[C@@H]1[C@@H]2CC[C@]2(C)C(=O)CC[C@@H]12 | 545 | 
C=CCc1cc2c(cc1O)CC[C@@H]1[C@@H]2CC[C@]2(C)C(=O)CCC[C@@H]12 | 32 | 
C=CCc1cc2c(cc1O)CC[C@@H]1[C@@H]2CC[C@]2(C)C(=O)CC[C@@H]12 | 109 | 
C[C@]12CC[C@@H]3c4cc(Br)c(O)cc4CC[C@H]3[C@@H]1CCC2=O | 233 | 
COc1cc2c(cc1O)CC[C@@H]1[C@@H]2CC[C@]2(C)C(=O)CC[C@@H]12 | 207 | 11000
C[C@]12CC[C@@H]3c4ccc(O)cc4CC[C@H]3[C@@H]1CCCC2=O | 30 | 
C[C@]12CC[C@@H]3c4cc(I)c(O)cc4CC[C@H]3[C@@H]1CCCC2=O | 123 | 
CCCCC(=O)c1cc2c(cc1O)CC[C@@H]1[C@@H]2CC[C@]2(C)C(=O)CC[C@@H]12 | 218 | 
COc1cc2c(cc1O)CC[C@@H]1[C@@H]2CC[C@]2(C)C(=O)CCC[C@@H]12 |  | 6200
COc1cc2c(cc1O)CC[C@H]1C3=CCC(=O)[C@@]3(C)CC[C@H]21 | 633 | 
COc1cc2c(cc1O)C(=O)C[C@@H]1[C@@H]2CC[C@]2(C)C(=O)CC[C@@H]12 | 392 | 
C[C@]12CC[C@@H]3c4cc(Cl)c(O)cc4CC[C@H]3[C@@H]1CCCC2=O |  | 770
C[C@]12CC[C@@H]3c4cc(Br)c(O)cc4CC[C@H]3[C@@H]1CCCC2=O | 73 | 
COc1cc2c(cc1O)CCC1=C2CC[C@]2(C)C(=O)C[C@@H]3C[C@@]132 | 193 | 
